The source of these data is patent US9580437B2, “Triazolopyrimidine compounds and uses thereof” (Novartis AG, priority 2014, dated 2017).

Test [1] concerns the target wild type PRC2 (wtPRC2) complex (Homo sapiens (Human), UniProt O75530). Kind of test: EED LC-MS assay. It counts as biochemical. The note with it: read-out: (b) IC50 EED LC-MS Qualified. As for the experimental part:
A 6 μL solution of 3 μM of the peptide substrate H3K27Me0 (histone H3[21-44]-biotin) in reaction buffer was added to initiate each reaction. […] ELISA (H3K27 Methylation) Assay

Another test deals with EED (1-441)-His protein (Homo sapiens (Human), UniProt O75530). In words: EED-H3K27Me3 peptide competition binding assay by AlphaScreen. The conditions noted are these: read-out: (a) IC50 EED Alphascreen binding Qualified. The source says: EED-H3K27Me3 peptide competition binding assay by AlphaScreen (α-screen)
EED (1-441)-His protein, sequence (O75530 whole entry): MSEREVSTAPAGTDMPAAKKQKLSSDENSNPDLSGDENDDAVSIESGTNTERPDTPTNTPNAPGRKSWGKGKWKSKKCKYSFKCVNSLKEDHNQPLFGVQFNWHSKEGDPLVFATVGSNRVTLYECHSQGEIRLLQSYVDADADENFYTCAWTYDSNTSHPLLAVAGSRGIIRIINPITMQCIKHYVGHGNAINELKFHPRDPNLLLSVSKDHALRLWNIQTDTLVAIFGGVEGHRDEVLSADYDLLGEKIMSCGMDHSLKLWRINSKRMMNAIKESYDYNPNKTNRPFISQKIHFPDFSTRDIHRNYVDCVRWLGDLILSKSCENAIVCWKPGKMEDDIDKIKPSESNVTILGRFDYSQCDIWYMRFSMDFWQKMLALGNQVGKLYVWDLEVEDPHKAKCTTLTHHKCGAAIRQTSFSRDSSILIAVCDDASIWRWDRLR

wild type PRC2 (wtPRC2) complex, sequence (O75530 whole entry): as above
wild type PRC2 (wtPRC2) complex, sequence (Q15910 whole entry partner): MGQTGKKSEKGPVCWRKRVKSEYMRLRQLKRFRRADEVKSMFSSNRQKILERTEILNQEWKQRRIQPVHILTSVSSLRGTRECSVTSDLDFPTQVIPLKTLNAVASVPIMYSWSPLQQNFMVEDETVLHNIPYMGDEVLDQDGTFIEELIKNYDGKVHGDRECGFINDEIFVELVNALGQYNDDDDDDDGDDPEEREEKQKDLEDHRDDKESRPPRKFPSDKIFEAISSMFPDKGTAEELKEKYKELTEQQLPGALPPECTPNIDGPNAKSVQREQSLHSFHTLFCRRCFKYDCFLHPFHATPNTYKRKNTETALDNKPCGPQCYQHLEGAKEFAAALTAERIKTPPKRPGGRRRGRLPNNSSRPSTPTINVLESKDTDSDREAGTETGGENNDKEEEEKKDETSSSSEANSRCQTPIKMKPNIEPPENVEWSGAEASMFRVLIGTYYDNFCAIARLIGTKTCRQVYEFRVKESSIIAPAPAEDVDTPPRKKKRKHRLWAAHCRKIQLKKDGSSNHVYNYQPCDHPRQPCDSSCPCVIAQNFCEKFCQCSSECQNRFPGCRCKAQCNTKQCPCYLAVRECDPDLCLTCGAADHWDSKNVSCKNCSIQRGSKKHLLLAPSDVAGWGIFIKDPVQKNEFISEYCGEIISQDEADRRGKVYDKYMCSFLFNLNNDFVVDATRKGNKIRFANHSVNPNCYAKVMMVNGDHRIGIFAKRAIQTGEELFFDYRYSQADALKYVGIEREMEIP
wild type PRC2 (wtPRC2) complex, sequence (Q15022 whole entry partner): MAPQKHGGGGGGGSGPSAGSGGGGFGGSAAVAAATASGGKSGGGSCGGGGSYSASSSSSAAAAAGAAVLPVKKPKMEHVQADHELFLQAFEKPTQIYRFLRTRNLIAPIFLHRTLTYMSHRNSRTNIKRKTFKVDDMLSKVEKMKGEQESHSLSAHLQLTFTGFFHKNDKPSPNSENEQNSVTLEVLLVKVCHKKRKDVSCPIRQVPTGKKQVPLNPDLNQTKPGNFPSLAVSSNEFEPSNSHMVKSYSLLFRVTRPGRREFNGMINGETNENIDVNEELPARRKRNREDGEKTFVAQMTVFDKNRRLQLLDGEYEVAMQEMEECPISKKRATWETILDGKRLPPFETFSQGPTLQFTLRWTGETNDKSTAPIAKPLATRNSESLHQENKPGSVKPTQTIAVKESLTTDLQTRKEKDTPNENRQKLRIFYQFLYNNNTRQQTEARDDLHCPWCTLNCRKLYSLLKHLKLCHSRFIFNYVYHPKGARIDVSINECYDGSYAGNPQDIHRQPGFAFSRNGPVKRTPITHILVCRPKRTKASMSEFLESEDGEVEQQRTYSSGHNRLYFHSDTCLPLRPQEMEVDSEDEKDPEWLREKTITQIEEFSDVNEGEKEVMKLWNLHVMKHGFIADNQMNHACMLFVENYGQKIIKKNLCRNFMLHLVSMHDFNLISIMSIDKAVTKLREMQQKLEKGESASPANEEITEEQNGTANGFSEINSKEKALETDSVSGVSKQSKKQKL

Regarding `CN(C)C(=O)c1ccc(-c2cnc(NCc3c(F)ccc4c3CCO4)n3cnnc23)cc1` [Example 55, 4-(5-(((5-fluoro-2,3-dihydrobenzofuran-4-yl)methyl)amino)-[1,2,4]triazolo[4,3-c]pyrimidin-8-yl)-N,N-dimethylbenzamide], the IC50 stood at 31.8 nM in test [1] and 21.1 nM on EED (1-441)-His protein.
Regarding `Cc1cc(-c2cnc(NCc3cccc4c3CCO4)n3cnnc23)cnc1N1CCOCC1` [Example 73, N-((2,3-dihydrobenzofuran-4-yl)methyl)-8-(5-methyl-6-morpholinopyridin-3-yl)-[1,2,4]triazolo[4,3-c]pyrimidin-5-amine], the IC50 is 17.4 nM in test [1] and 12.5 nM on EED (1-441)-His protein.
On to `COc1ncc(-c2cnc(NCc3c(F)ccc4c3CCO4)n3cnnc23)cn1` [Example 174, N-((5-fluoro-2,3-dihydrobenzofuran-4-yl)methyl)-8-(2-methoxypyrimidin-5-yl)-[1,2,4]triazolo[4,3-c]pyrimidin-5-amine], for which the IC50 in test [1] came to 6.2 nM; at EED (1-441)-His protein, 4.7 nM.
With `CCc1cc(C)c(-c2cnc(NCc3c(F)ccc4c3CCO4)n3cnnc23)cn1` [Example 224, 8-(6-ethyl-4-methylpyridin-3-yl)-N-((5-fluoro-2,3-dihydrobenzofuran-4-yl)methyl)-[1,2,4]triazolo[4,3-c]pyrimidin-5-amine], the IC50 in test [1] worked out at 1.9 nM; on EED (1-441)-His protein it was 1.5 nM.
For `c1cc(CNc2ncc(-c3ccc(N4CCSCC4)nc3)c3nncn23)c2c(c1)OCC2` [Example 81, N-((2,3-dihydrobenzofuran-4-yl)methyl)-8-(6-thiomorpholinopyridin-3-yl)-[1,2,4]triazolo[4,3-c]pyrimidin-5-amine], in that order: 19.1 nM and 14.6 nM.
As for `Cc1cncc(-c2cnc(NCc3c(F)ccc4c3CCO4)n3cnnc23)c1` [Example 232, N-((5-fluoro-2,3-dihydrobenzofuran-4-yl)methyl)-8-(5-methylpyridin-3-yl)-[1,2,4]triazolo[4,3-c]pyrimidin-5-amine], the figures for the IC50 (in test [1]; at EED (1-441)-His protein) were 13.1 nM and 6.2 nM, respectively.
Take `Cc1nc(N)ccc1-c1cnc(NCc2c(F)ccc3c2CCO3)n2cnnc12` [Example 156, 8-(6-amino-2-methylpyridin-3-yl)-N-((5-fluoro-2,3-dihydrobenzofuran-4-yl)methyl)-[1,2,4]triazolo[4,3-c]pyrimidin-5-amine]: the IC50 in test [1] was determined as 17.3 nM; at EED (1-441)-His protein it was 4 nM.
For `CS(=O)(=O)CCOc1cncc(-c2cnc(NCc3cccc4c3CCO4)n3cnnc23)c1` [Example 106, N-((2,3-dihydrobenzofuran-4-yl)methyl)-8-(5-(2-(methylsulfonyl)ethoxy)pyridin-3-yl)-[1,2,4]triazolo[4,3-c]pyrimidin-5-amine], in that order: 34.1 nM and 25 nM.
For `Cc1cc(C(=O)N2CCCC2)ncc1-c1cnc(NCc2c(F)ccc3c2CCO3)n2cnnc12` [Example 130, (5-(5-(((5-fluoro-2,3-dihydrobenzofuran-4-yl)methyl)amino)-[1,2,4]triazolo[4,3-c]pyrimidin-8-yl)-4-methylpyridin-2-yl)(pyrrolidin-1-yl)methanone], in that order: 13.7 nM and 5 nM.
For `NC(=O)c1ccccc1-c1cnc(NCc2c(F)ccc3c2CCO3)n2cnnc12` [Example 122, 2-(5-(((5-fluoro-2,3-dihydrobenzofuran-4-yl)methyl)amino)-[1,2,4]triazolo[4,3-c]pyrimidin-8-yl)benzamide], in that order: 43.7 nM and 19.2 nM.
Take `CC(C)n1cc(-c2cnc(NCc3c(F)ccc4c3CCO4)n3cnnc23)c(C(F)(F)F)n1` [Example 148, N-((5-fluoro-2,3-dihydrobenzofuran-4-yl)methyl)-8-(1-isopropyl-3-(trifluoromethyl)-1H-pyrazol-4-yl)-[1,2,4]triazolo[4,3-c]pyrimidin-5-amine]: the IC50 in test [1] turned out to be 18 nM; on EED (1-441)-His protein, 5.2 nM.
Turning to `Cc1cc(-c2cnc(NCc3cccc4c3CCO4)n3cnnc23)cnc1N1CCCC1` [Example 103, N-((2,3-dihydrobenzofuran-4-yl)methyl)-8-(5-methyl-6-(pyrrolidin-1-yl)pyridin-3-yl)-[1,2,4]triazolo[4,3-c]pyrimidin-5-amine], the IC50 came out at 431 nM in test [1] and 728 nM at EED (1-441)-His protein.
Take `Cc1cc(-c2cnc(NCc3cccc4c3CCO4)n3cnnc23)cnc1N1CCNC(=O)C1` [Example 105, 4-(5-(5-(((2,3-dihydrobenzofuran-4-yl)methyl)amino)-[1,2,4]triazolo[4,3-c]pyrimidin-8-yl)-3-methylpyridin-2-yl)piperazin-2-one]: the IC50 in test [1] turned out to be 32.6 nM; on EED (1-441)-His protein, 26.9 nM.
For `Cc1cc(-c2cnc(NCc3cccc4c3CCO4)n3cnnc23)cnc1S(C)(=O)=O` [Example 70, N-((2,3-dihydrobenzofuran-4-yl)methyl)-8-(5-methyl-6-(methylsulfonyl)pyridin-3-yl)-[1,2,4]triazolo[4,3-c]pyrimidin-5-amine], in that order: 21.1 nM and 11.5 nM.
For the compound `Fc1ccc2c(c1CNc1ncc(-c3ccc(C4CC4)nc3)c3nncn13)CCO2` [Example 119, 8-(6-cyclopropylpyridin-3-yl)-N-((5-fluoro-2,3-dihydrobenzofuran-4-yl)methyl)-[1,2,4]triazolo[4,3-c]pyrimidin-5-amine], the figures for the IC50 (in test [1]; at EED (1-441)-His protein) were 6.6 nM and 4 nM, respectively.
Turning to `O=C1CNCCN1c1ccc(-c2cnc(NCc3cccc4c3CCO4)n3cnnc23)cn1` [Example 125, 1-(5-(5-(((2,3-dihydrobenzofuran-4-yl)methyl)amino)-[1,2,4]triazolo[4,3-c]pyrimidin-8-yl)pyridin-2-yl)piperazin-2-one], the IC50 stood at 23.4 nM in test [1] and 8.5 nM on EED (1-441)-His protein.
For `Cc1cc(-c2cnc(NCc3c(F)ccc4c3CCO4)n3cnnc23)c(C)cn1` [Example 194, 8-(2,5-dimethylpyridin-4-yl)-N-((5-fluoro-2,3-dihydrobenzofuran-4-yl)methyl)-[1,2,4]triazolo[4,3-c]pyrimidin-5-amine], in that order: 7 nM and 2.4 nM.
For `Cc1nc(OC2CC2)ncc1-c1cnc(NCc2c(F)ccc3c2CCO3)n2cnnc12` [Example 225, 8-(2-cyclopropoxy-4-methylpyrimidin-5-yl)-N-((5-fluoro-2,3-dihydrobenzofuran-4-yl)methyl)-[1,2,4]triazolo[4,3-c]pyrimidin-5-amine], in that order: 10.6 nM and 7.5 nM.
For `Cc1nc(CN(C)C)ccc1-c1cnc(NCc2c(F)ccc3c2CCO3)n2cnnc12` [Example 223, 8-(6-((dimethylamino)methyl)-2-methylpyridin-3-yl)-N-((5-fluoro-2,3-dihydrobenzofuran-4-yl)methyl)-[1,2,4]triazolo[4,3-c]pyrimidin-5-amine], in that order: 18.4 nM and 8.4 nM.
On to `Cc1nn(C(C)C)c(C)c1-c1cnc(NCc2c(F)ccc3c2CCO3)n2cnnc12` [Example 151, N-((5-fluoro-2,3-dihydrobenzofuran-4-yl)methyl)-8-(1-isopropyl-3,5-dimethyl-1H-pyrazol-4-yl)-[1,2,4]triazolo[4,3-c]pyrimidin-5-amine], for which the IC50 in test [1] stood at 21.6 nM; at EED (1-441)-His protein it was 13.1 nM.
In the case of `OCc1ccc(-c2cnc(NCc3c(F)ccc4c3CCO4)n3cnnc23)cn1` [Example 234, (5-(5-(((5-fluoro-2,3-dihydrobenzofuran-4-yl)methyl)amino)-[1,2,4]triazolo[4,3-c]pyrimidin-8-yl)pyridin-2-yl)methanol], the half-inhibitory concentration (IC50) worked out at 11.2 nM in test [1] and 5.4 nM at EED (1-441)-His protein.
For `CS(=O)(=O)c1ccc(-c2cnc(NCc3cccc4occc34)n3cnnc23)cc1` [Example 214, N-(benzofuran-4-ylmethyl)-8-(4-(methylsulfonyl)phenyl)-[1,2,4]triazolo[4,3-c]pyrimidin-5-amine], in that order: 22.5 nM and 37.4 nM.
Take `CS(=O)(=O)c1ccc(-c2cnc(NCc3cccc4c3CCO4)n3cnnc23)c(F)c1` [Example 26, N-((2,3-dihydrobenzofuran-4-yl)methyl)-8-(2-fluoro-4-(methylsulfonyl)phenyl)-[1,2,4]triazolo[4,3-c]pyrimidin-5-amine]: the figures for the IC50 (in test [1]; on EED (1-441)-His protein) were 17.1 nM and 9.9 nM, respectively.
For `Cc1nn(C[C@H](C)O)c(C)c1-c1cnc(NCc2c(F)ccc3c2CCO3)n2cnnc12` [Example 187, (2S)-1-(4-(5-(((5-fluoro-2,3-dihydrobenzofuran-4-yl)methyl)amino)-[1,2,4]triazolo[4,3-c]pyrimidin-8-yl)-3,5-dimethyl-1H-pyrazol-1-yl)propan-2-ol], in that order: 12.5 nM and 8.2 nM.
With `CS(=O)(=O)c1ccc(-c2cnc(NCc3c(F)ccc4c3CCO4)n3cnnc23)cc1` [Example 37, N-((5-fluoro-2,3-dihydrobenzofuran-4-yl)methyl)-8-(4-(methylsulfonyl)phenyl)-[1,2,4]triazolo[4,3-c]pyrimidin-5-amine], the values for the IC50 (in test [1]; on EED (1-441)-His protein) were 20.7 nM and 12.3 nM, respectively.
In the case of `Fc1ccc2c(c1CNc1ncc(-c3ccc(Cl)cc3Cl)c3nncn13)CCO2` [Example 146, 8-(2,4-dichlorophenyl)-N-((5-fluoro-2,3-dihydrobenzofuran-4-yl)methyl)-[1,2,4]triazolo[4,3-c]pyrimidin-5-amine], the IC50 in test [1] was 38.2 nM; at EED (1-441)-His protein, 23 nM.
For `Cc1ncc(-c2cnc(NCc3c(F)ccc4c3CCO4)n3cnnc23)c(C)n1` [Example 3, 8-(2,4-Dimethylpyrimidin-5-yl)-N-((5-fluoro-2,3-dihydrobenzofuran-4-yl)methyl)-[1,2,4]triazolo[4,3-c]pyrimidin-5-amine], in that order: 6.4 nM and 3.8 nM.

Broadly, the IC50 is the concentration at which inhibition is half-maximal.
